The source of these data is patent US20150290235A1, “USE OF SMALL MOLECULE INHIBITORS/ACTIVATORS IN COMBINATION WITH (DEOXY)NUCLEOSIDE OR (DEOXY)NUCLEOTIDE ANALOGS FOR TREATMENT OF CANCER AND HEMATOLOGICAL MALIGNANCIES OR VIRAL INFECTIONS” (AB SCIENCE, priority 2012, published 2015).

Molecules are shown by their SMILES. “And” between values parts separate entries of the source, which are not always exact repeats. Identical values can stand only once. “Also recorded” adds a separate entry of the source.

In test [1] the test system is BxPC-3 pancreatic cancer cells. The experiment in a line: WST-1 proliferation assay, BxPC-3. In kind it is cell-based, human. As to the method: (§1) Cancer cell lines: Pancreatic cancer cells lines (Mia Paca-2, Panc-1, BxPC-3 and Capan-2) were obtained from Dr. Juan Iovanna (Inserm, France). Cells were maintained in RPMI (BxPC-3, Capan-2) or DMEM (Mia Paca-2, Panc-1) medium containing glutamax-1 (Lonza), supplemented with 100 U/ml penicillin/100 μg/ml streptomycin, and 10% fetal calf serum (FCS) (AbCys, Lot S02823S1800). Expression of tyrosine kinases was determined by RT-PCR using Hot Star Taq (Qiagen GmbH, Hilden, Germany) in a 2720 Thermal Cycler (Applied Biosystems).
(§2) Treatment was started with the addition of the respective drug. […] After 72 hours WST-1 reagent was added and incubated with the cells for 4 hours before absorbance measurement at 450 nm in an EL800 Universal Microplate Reader (Bio-Tek Instruments Inc.). Media alone was used as a blank and proliferation in the absence of compounds served as positive control. Results are representative of three/four experiments.
(In general: Formazan colour is commonly taken as a measure of viable cells.)

The subject of test [2] is Capan-2 pancreatic cancer cells. In words: WST-1 proliferation assay, Capan-2. In kind it is cell-based, human. How it is done: as §1, §2
Test [3] concerns Mia Paca-2 pancreatic cancer cells. In words: WST-1 proliferation assay, Mia Paca-2. It counts as cell-based, human. As to conditions: for response to gemcitabine after pre-incubation with TKI: Mia Paca-2, gemcitabine-resistant, 10 μM TKI.
Test [4] has as its system Panc-1 pancreatic cancer cells. In words: WST-1 proliferation assay, Panc-1. The note with it: Panc-1. In kind it is cell-based, human. How it is done: as §1, §2
Test [5] has as its system Abrams osteosarcoma cells. In words: Alamar Blue cell proliferation assay, Abrams. It counts as cell-based, canine.
The next test has as its system D17 osteosarcoma cells. In words: Alamar Blue cell proliferation assay, D17. It counts as cell-based, canine. (In general: Alamar Blue is a resazurin reagent that responds to reducing activity.)
Test [6] relates to CMT12 breast carcinoma cells. The experiment in a line: Alamar Blue cell proliferation assay, CMT12. It counts as cell-based, canine.
The test system of test [7] is CMT27 breast carcinoma cells. The experiment in a line: Alamar Blue cell proliferation assay, CMT27. In kind it is cell-based, canine.
The test system of another test is C2 mastocytoma cells. The experiment in a line: Alamar Blue cell proliferation assay, C2. In kind it is cell-based, canine.
Test [8] has as its system Mia Paca-2 pancreatic tumors. In words: Nog-SCID mouse model of human pancreatic cancer. The note with it: day 56, 28 days of treatment; control 1023. It counts as in vivo, Nog-SCID mice.
Test [9] deals with canine cancer cell lines other than C2. The experiment in a line: cells. The note with it: Canis lupus familiaris, read-out: IC50 masitinib single agent.
Test [10] relates to Ba/F3 cells expressing human or mouse wild-type c-Kit. As to conditions: read-out: IC50, blocking stem cell factor-induced proliferation and c-Kit tyrosine phosphorylation; cited from earlier work.
Test [11] relates to Ba/F3 cells expressing PDGFR-α. As to conditions: read-out: IC50, PDGF-BB-stimulated proliferation and PDGFR-α tyrosine phosphorylation; cited from earlier work.
Test [12] deals with human deoxycytidine kinase (dCK) (Homo sapiens, UniProt P27707). In words: dCK activity with UTP as phosphate donor (PK/LDH enzymatic-coupled assay). As to conditions: nine dCK substrates.
Setting [13] is: Canis lupus familiaris, 72 h, read-out: IC50 masitinib monotherapy.
[14] abbreviates: Canis lupus familiaris, Breast carcinoma cell, 72 h, read-out: IC50 masitinib monotherapy.

Sequence of human deoxycytidine kinase (dCK) (P27707 whole entry): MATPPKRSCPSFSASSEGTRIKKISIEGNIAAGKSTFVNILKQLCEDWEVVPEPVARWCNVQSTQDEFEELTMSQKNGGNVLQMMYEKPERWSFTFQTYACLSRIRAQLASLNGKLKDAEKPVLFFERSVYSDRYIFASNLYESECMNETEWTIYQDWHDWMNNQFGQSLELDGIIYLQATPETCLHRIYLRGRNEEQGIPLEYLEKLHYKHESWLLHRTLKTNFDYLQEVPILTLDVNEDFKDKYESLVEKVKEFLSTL

On to `Cc1ccc(NC(=O)c2ccc(CN3CCN(C)CC3)cc2)cc1Nc1nc(-c2cccnc2)cs1` [Masitinib, 4-(4-methylpiperazin-1-ylmethyl)-N-[4-methyl-3-(4-pyridin-3ylthiazol-2-ylamino)phenyl]benzamide], for which the “synergy of masitinib with gemcitabine” value is “no synergy” in test [1] (BxPC-3, gemcitabine-sensitive) and “no synergy” in test [2] (Capan-2, gemcitabine-sensitive). Also, the IC50 in test [1] (Homo sapiens, BxPC-3, 72 hours, 1% FCS, read-out: IC50, single agent) is 5 to 10 µM; in [2] (Homo sapiens, Capan-2, 72 hours, 1% FCS, read-out: IC50, single agent) it was 5 to 10 µM; in test [3] (Homo sapiens, Mia Paca-2, 72 hours, 1% FCS, read-out: IC50, single agent) it was 5 to 10 µM; in test [4] (Homo sapiens, 72 hours, 1% FCS, read-out: IC50, single agent), 5 to 10 µM; in [5] (setting [13]), over 10 µM; with D17 osteosarcoma cells (setting [13]), over 10 µM. The IC50 in [6] (setting [14]) is 8 µM; in test [7] (setting [14]) it was 8 µM; in the test with C2 mastocytoma cells (setting [13]), 30 nM; in [9] it was 5 to 20 µM; in [10], 150 ± 80 nM; in test [11] it was 300 ± 5 nM. Moreover, the “response to gemcitabine after pre-incubation with TKI” value (from here on “response to gemcitabine”) in [3] is listed as “able to restore sensitivity to gemcitabine”. Further, the “reduction in gemcitabine IC50” value is > 400 fold and 400 fold in test [3] (Mia Paca-2, pre-treated with 5 and 10 μM masitinib (10 μM)); 10 fold in test [4] (masitinib pre-treatment (10 μM)). Moreover, the “Sensitization factor (maximum)” value in [5] (Abrams, gemcitabine with masitinib 5 μM) is given as 18; with D17 osteosarcoma cells (D17, gemcitabine with masitinib 5 μM), 70; in test [6] (CMT12, gemcitabine with masitinib 10 μM) it was over 10; in test [7] (CMT27, gemcitabine with masitinib 10 μM), over 75; with C2 mastocytoma cells (C2, gemcitabine with masitinib 0.001 μM), 1. In addition, the “Tumor Volume, Median” value in test [8] was 865 mm^3.

Turning to `COc1cc(Nc2c(C#N)cnc3cc(OCCCN4CCN(C)CC4)c(OC)cc23)c(Cl)cc1Cl` [bosutinib, 4-[(2,4-dichloro-5-methoxyphenyl)amino]-6-methoxy-7-[3-(4-methylpiperazin-1-yl)propoxy]quinoline-3-carbonitrile], the “activation of dCK (substrate phosphorylation)” value (“activation of dCK” below) in test [12] is listed as “most active compounds; also recorded: activate dCK”.

With `CO[C@@H](C(=O)N1Cc2n[nH]c(NC(=O)c3ccc(N4CCN(C)CC4)cc3)c2C1)c1ccccc1` [danusertib], the “activation of dCK” value in [12] was “most active compounds; also recorded: activate dCK”.

Turning to `Cc1nc(Nc2ncc(C(=O)Nc3c(C)cccc3Cl)s2)cc(N2CCN(CCO)CC2)n1.O` [dasatinib, N-(2-chloro-6-methylphenyl)-2-[[6-[4-(2-hydroxyethyl)-1-piperazinyl]-2-methyl-4-pyrimidinyl]amino]-5-thiazole carboxamide monohydrate], the “response to gemcitabine” value in test [3] was “did not result in an increased response”. In addition, the “cell proliferation with TKI alone” value in test [3] (Mia Paca-2, imatinib 10 μM, dasatinib >0.1 μM) is recorded as “partially inhibited”.

Regarding `C#Cc1cccc(Nc2ncnc3cc(OCCOC)c(OCCOC)cc23)c1` [erlotinib, N-(3-ethynylphenyl)-6,7-bis(2-methoxyethoxy) quinazolin-4-amine], the “activation of dCK” value in test [12] is “relatively little or no activity”.

Take `COc1cc(Nc2ncc(F)c(Nc3ccc4c(n3)N(COP(=O)(O)O)C(=O)C(C)(C)O4)n2)cc(OC)c1OC` [fostamatinib, [6-({5-fluoro-2-[(3,4,5-trimethoxyphenyl)amino]pyrimidin-4-yl}amino)-2,2-dimethyl-3-oxo-2,3-dihydro-4H-pyrido[3,2-b][1,4]oxazin-4-yl]methyl dihydrogen phosphate]: the “activation of dCK” value in test [12] was “relatively little or no activity; also recorded: did not activate dCK”.

For the compound `Cc1ccc(NC(=O)c2ccc(CN3CCN(C)CC3)cc2)cc1Nc1nccc(-c2cccnc2)n1` [imatinib, 4-[(4-methylpiperazin-1-yl)methyl]-N-[4-methyl-3-[(4-pyridin-3-ylpyrimidin-2-yl)amino]phenyl]benzamide], the “response to gemcitabine” value in test [3] was “did not result in an increased response”.

With `Cc1cn(-c2cc(NC(=O)c3ccc(C)c(Nc4nccc(-c5cccnc5)n4)c3)cc(C(F)(F)F)c2)cn1` [nilotinib, 4-methyl-N-[3-(4-methyl-1H-imidazol-1-yl)-5-(trifluoromethyl)phenyl]-3-[(4-pyridin-3-ylpyrimidin-2-yl)amino]benzamide], the “activation of dCK” value in test [12] is “relatively little or no activity; also recorded: did not activate dCK”.

As to `CNC(=O)c1cc(Oc2ccc(NC(=O)Nc3ccc(Cl)c(C(F)(F)F)c3)cc2)ccn1` [sorafenib, 4-[4-[[4-chloro-3-(trifluoromethyl)phenyl]carbamoylamino]phenoxy]-N-methyl-pyridine-2-carboxamide], the “activation of dCK” value in [12] was “relatively little or no activity; also recorded: did not activate dCK”.

On to `CCN(CC)CCNC(=O)c1c(C)[nH]c(/C=C2\C(=O)Nc3ccc(F)cc32)c1C` [sunitinib, N-(2-diethylaminoethyl)-5-[(Z)-(5-fluoro-2-oxo-1H-indol-3-ylidene)methyl]-2,4-dimethyl-1H-pyrrole-3-carboxamide], for which the “activation of dCK” value in test [12] is given as “relatively little or no activity; also recorded: did not activate dCK”.

`Cc1[nH]c(/C=C2\C(=O)Nc3ccc(F)cc32)c(C)c1C(=O)NCCN1CCCC1` [toceranib, (Z)-5-[(5-Fluoro-2-oxo-1,2-dihydro-3H-indol-3-ylidene)methyl]-2,4-dimethyl-N-(2-pyrrolidin-1-ylethyl)-1H-pyrrole-3-carboxamide]: the “activation of dCK” value in test [12] is on record as “relatively little or no activity; also recorded: did not activate dCK”.

As for `Cc1cc(Nc2cc(N3CCN(C)CC3)nc(Sc3ccc(NC(=O)C4CC4)cc3)n2)[nH]n1` [tozacertib], the “activation of dCK” value in test [12] was “most active compounds; also recorded: activate dCK”.
